Here are results for seven compounds from US9550792B2, “Polycyclic substituted pyrazole kinase activity inhibitors and use thereof” (priority 2013, dated 2017).

In brackets after ≈: the same amount, converted by molar mass. Read-outs that look alike come from different tables or passages of the source. Where only a bound is given, the exact number is not on record here.

For one data set, the target named is T1, CDK2/A (Homo sapiens, UniProt P24941).
T1 construct: purchased
The data set can be described thus: Inhibitory activity to CDK2 (FRET). It counts as biochemical. The following applies: for inhibition at 1 µM: read-out: CDK2 inhibition % (1 × 10^−6 mol/L). The protocol:
CDK2/A was purchased in the form of a kit or obtained through purification.
Procedures: CDK2/A is diluted to a suitable concentration with kinase diluent. The kinase reaction mixture contains CDK2/A, peptide substrate, HEPES (pH7.5), BRIJ-35, MgCl2 and EDTA. CDK2 phospho-peptide substrate is used as the control of 100% phosphorylation and ATP-free as the control of 0% phosphorylation. After 1 h, the diluted Development Reagent A is added into the reaction system. Then the reaction is allowed to proceed for 1 h and then quenched with Stop Reagent. […] The inhibitions of the tested compounds are calculated according to the formula.

A further data set addresses T2, Aurora A (Homo sapiens, UniProt O14965).
T2 construct: purchased
T2 sequence (O14965 1-403): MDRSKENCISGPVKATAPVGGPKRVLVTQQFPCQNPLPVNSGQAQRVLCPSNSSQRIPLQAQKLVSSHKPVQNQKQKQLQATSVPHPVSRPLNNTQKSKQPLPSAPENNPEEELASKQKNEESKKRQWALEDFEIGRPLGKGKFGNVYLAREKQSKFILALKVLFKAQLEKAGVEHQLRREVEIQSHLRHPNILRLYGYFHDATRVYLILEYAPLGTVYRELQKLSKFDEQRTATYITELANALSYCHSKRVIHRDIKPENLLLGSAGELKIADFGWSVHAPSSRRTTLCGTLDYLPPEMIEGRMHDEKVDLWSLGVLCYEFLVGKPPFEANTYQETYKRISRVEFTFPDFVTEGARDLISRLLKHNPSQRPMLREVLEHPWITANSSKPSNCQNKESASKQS
The data set can be described thus: Inhibitory activity to Aurora A (FRET). The class given is biochemical. The following applies: for inhibition at 1 µM: read-out: Aurora A inhibition % (1 × 10^−6 mol/L). The protocol: The inhibitory activities of the synthesized compounds for Aurora A is determined by fluorescence resonance energy transfer (FRET) and were compared with the positive control drug so as to screen the compounds with better activities. Aurora A was purchased in the form of a kit or obtained through purification. Procedures: Aurora A is diluted to a suitable concentration with kinase diluent. The kinase reaction mixture contains Aurora A, peptide substrate, HEPES (pH7.5), BRIJ-35, MgCl2 and EDTA. Aurora A phospho-peptide substrate is used as the control of 100% phosphorylation and ATP-free as the control of 0% phosphorylation. After 1 h, the diluted Development Reagent A is added into the reaction system. Then the reaction is allowed to proceed for 1 h and then quenched with Stop Reagent. The excitation wavelength is 400 nm and the fluorescence intensity is detected at 445 nm (coumarin) and 520 nm (fluorescein). The inhibitions of the tested compounds are calculated according to the formula.

Data set [1] deals with Candida albicans - ATCC 36082. The data set can be described thus: Antifungal activity, modified broth microdilution. The class given is cell-based. The following applies: Candida albicans, ATCC36082; 48 hours at 35, approximately 50% reduction of growth. The protocol:
(§1) The test microorganisms are maintained on Sabourahd Dextrose Agar slant at 4[…]. Singlet suspension of each microorganism is prepared by growing the yeast overnight at 27[…] on a rotating drum in yeast-nitrogen base broth (YNB) with amino acids (Difco, Detroit, Mich.), (pH 7.0) and 0.05 morpholine propanesulphonic acid (MOPS). […] The activity of the test compound is determined using a modified broth microdilution technique. […] Well 12 serves as a growth control. […] Inoculated plate is incubated for 48 hours at 35 °C. […] Minimal Cytolytic Concentration (MCC) is determined by subculturing all wells from the 96-well plate onto a Sabourahd Dextrose Agar (SDA) plate, incubating for 1-2 days at 35 °C, and then checking viability.
(Dilution methods test growth across graded concentrations, often in twofold steps.)

In the next data set the test system is Candida parapsilosis. The data set can be described thus: Antifungal activity, modified broth microdilution. The class given is cell-based. The following applies: Lodderomyces parapsilosis; 48 hours at 35, approximately 50% reduction of growth. On the procedure:
as §1

For a further data set, the system named is Candida tropicalis. In words: Antifungal activity, modified broth microdilution. It counts as cell-based. The following applies: Candida tropicalis; 48 hours at 35, approximately 50% reduction of growth. On the procedure:
as §1

A further data set concerns Cryptococcus neoformans. In words: Antifungal activity, modified broth microdilution. The class given is cell-based. The following applies: Cryptococcus neoformans; 48 hours at 35, approximately 50% reduction of growth. On the procedure: as §1
A further data set concerns Phytophthora infestans. The class given is in vivo.
The subject of data set [2] is colon cancer cell line HCT116. The data set can be described thus: Anti-tumor activity in vitro, MTT method. The class given is cell-based. The following applies: read-out: HCT-116 (IC50/μM). A general note: Tetrazolium assays rely on reduction of a dye to a coloured formazan, in cell work by metabolically active cells.
The test system of data set [3] is liver cancer cell line 7721. The data set can be described thus: Anti-tumor activity in vitro, MTT method. It counts as cell-based. The following applies: 48 h, read-out: 7721 (IC50/μM).
A further data set deals with lung cancer cell H1299. In words: Anti-tumor activity in vitro, MTT method. The following applies: read-out: H1299 (IC50/μM). It counts as cell-based.
[4] abbreviates: Homo sapiens, HCT-116, MTT, 48 h, first cell table.
Where [5] appears, read: Homo sapiens, NCI-H1299, MTT, 48 h.

`CN1CCN(Cc2ccc(NC(=O)c3n[nH]cc3Nc3nccc4sccc34)cc2)CC1` [Compound I-25, 4-(4-thieno[3,2-c]pyridylamino)-N-(4-((4-methyl-1-piperazinyl)methyl)phenyl)-1H-3-pyrazolecarboxamide] came in with a melting point of 268 to 270 °C. Also, on CDK2/A, the inhibition at 1 µM is 59.5%. Further, the inhibition at 1 µM at Aurora A worked out at 59.7%. The compound further came in with an MIC in data set [1] of 3.38 µg/mL (≈ 7.55 µM). In the data set on Candida parapsilosis, inhibition of growth (MIC) required 0.96 µg/mL (≈ 2.14 µM). The MIC against Candida tropicalis turned out to be 1.08 µg/mL (≈ 2.41 µM). Besides, the MIC against Cryptococcus neoformans is 2.83 µg/mL (≈ 6.32 µM). Moreover, the “Severity of tomato leaf blight” value in the data set on Phytophthora infestans (0.0001 (unit not given)) was “++ (15-40% blight)”. For the same compound, the “Severity of tomato leaf blight” value in the data set on Phytophthora infestans (0.001 (unit not given)) was “++ (15-40% blight)”. In addition, the “Severity of tomato leaf blight” value in the data set with Phytophthora infestans (0.01 (unit not given)) is “+ (0-15% blight)”. For the same compound, in the data set with Phytophthora infestans (0.1 (unit not given)), the “Severity of tomato leaf blight” value is “−”.

`O=C(Nc1c[nH]nc1-c1nc2ccc(CN3CCOCC3)cc2[nH]1)NC1CC1` [AT-9283, reference compound]: the inhibition at 1 µM on CDK2/A was found to be 39.7%; at Aurora A, 77.4%. In addition, the IC50 was found to be 21.2 µM in data set [2] (setting [4]), 61.2 µM in data set [3] (MTT) and 10.8 µM in the data set with lung cancer cell H1299 (setting [5]).

Turning to `Cc1c[nH]c2ncnc(Nc3c[nH]nc3C(=O)Nc3ccc(CN4CCOCC4)cc3)c12` [Compound I-16, 4-(4-(5-methyl-7H-pyrrolo[2,3-d]pyrimidinyl)amino)-N-(4-((4-morpholinyl)methyl)phenyl)-1H-3-pyrazolecarboxamide], the “CDK2 inhibition % (1 × 10^−6 mol/L)” value at CDK2/A (1 × 10^−6 mol/L) amounted to 50.49%. On Aurora A (1 × 10^−6 mol/L), the “Aurora A inhibition % (1 × 10^−6 mol/L)” value came out at 56.18%. Moreover, the IC50 amounted to 32.3 µM in [2] (MTT, 48 h, first cell table); 54.2 µM in data set [3] (MTT); 89 µM with lung cancer cell H1299 (MTT, 48 h).

In the case of `CN1CCN(Cc2ccc(NC(=O)c3n[nH]cc3Nc3nccc4ccsc34)cc2)CC1` [Compound I-29, 4-(7-thieno[2,3-c]pyridylamino)-N-(4-((4-methyl-1-piperazinyl)methyl)phenyl)-1H-3-pyrazolecarboxamide], the melting point is 274 to 276 °C. On CDK2/A, the inhibition at 1 µM is 76.2%. Moreover, on Aurora A, the inhibition at 1 µM was found to be 64.4%. The IC50 in [2] (Homo sapiens, HCT-116, 48 h) is 0.26 µM. Besides, the IC50 in data set [3] stood at 4.95 µM. Also, the IC50 with lung cancer cell H1299 (Homo sapiens, NCI-H1299, 48 h) was found to be 3.84 µM. Further, the MIC in [1] is 2.73 µg/mL (≈ 6.1 µM). In the data set with Candida parapsilosis, this compound yielded an MIC of 6.47 µg/mL (≈ 14.5 µM). The compound also registered an MIC against Candida tropicalis of 4.21 µg/mL (≈ 9.41 µM). In the data set with Cryptococcus neoformans, the MIC worked out at 7.81 µg/mL (≈ 17.4 µM). In the data set with Phytophthora infestans (0.0001 (unit not given)), the “Severity of tomato leaf blight” value was “+++ (40-60% blight)”. Further, the “Severity of tomato leaf blight” value in the data set with Phytophthora infestans (0.001 (unit not given)) is “++ (15-40% blight)”. The “Severity of tomato leaf blight” value in the data set with Phytophthora infestans (0.01 (unit not given)) is reported as “+ (0-15% blight)”. Also, the “Severity of tomato leaf blight” value in the data set on Phytophthora infestans (0.1 (unit not given)) is recorded as “−”.

Turning to `CN1CCN(Cc2ccc(NC(=O)c3n[nH]cc3Nc3ncnc4ccsc34)cc2)CC1` [Compound I-9, 4-(4-thieno[3,2-d]pyrimidinylamino)-N-(4-((4-methyl-1-piperazinyl)methyl)phenyl)-1H-3-pyrazole carboxamide], the melting point was > 280 °C. Moreover, the inhibition at 1 µM on CDK2/A came to 65%. On Aurora A, the inhibition at 1 µM is 67.6%. The same compound showed an MIC in data set [1] of 12.7 µg/mL (≈ 28.4 µM). In addition, it took 8.7 µg/mL (≈ 19.4 µM) to inhibit growth against Candida parapsilosis (MIC). Further, the MIC against Candida tropicalis is 10.7 µg/mL (≈ 23.9 µM). The minimum inhibitory concentration (MIC) against Cryptococcus neoformans came out at 15.6 µg/mL (≈ 34.7 µM). In addition, the “Severity of tomato leaf blight” value in the data set on Phytophthora infestans (0.0001 (unit not given)) was “++ (15-40% blight)”. Further, the “Severity of tomato leaf blight” value with Phytophthora infestans (0.001 (unit not given)) was “++ (15-40% blight)”. In the data set on Phytophthora infestans (0.01 (unit not given)), the “Severity of tomato leaf blight” value is on record as “−”. In addition, the “Severity of tomato leaf blight” value in the data set on Phytophthora infestans (0.1 (unit not given)) is “−”.

As to `O=C(Nc1ccc(CN2CCOCC2)cc1)c1n[nH]cc1Nc1ncnc2occc12` [Compound I-22, 4-(4-furo[2,3-d]pyrimidinylamino)-N-(4-((4-morpholinyl)methyl)phenyl)-1H-3-pyrazolecarboxamide], the melting point was > 280 °C. For the same compound, the inhibition at 1 µM at CDK2/A stood at 66.3%. For the same compound, the inhibition at 1 µM on Aurora A amounted to 48.5%. Moreover, the IC50 in data set [2] (setting [4]) was found to be 8.63 µM. Further, the IC50 in data set [3] (MTT) was 18.1 µM. Besides, in the data set on lung cancer cell H1299 (setting [5]), the IC50 turned out to be 10.3 µM.

With `CN1CCN(Cc2ccc(NC(=O)c3n[nH]cc3Nc3ccnc4ccoc34)cc2)CC1` [Compound I-39, 4-(7-furo[3,2-b]pyridylamino)-N-(4-((4-methyl-1-piperazinyl)methyl)phenyl)-1H-3-pyrazolecarboxamide], the melting point fell in the range of 268 to 270 °C. Further, the inhibition at 1 µM at CDK2/A was determined as 37.6%. Moreover, on Aurora A, the inhibition at 1 µM was found to be 42.1%. Further, in data set [2] (setting [4]), the IC50 was > 200 µM. The IC50 in data set [3] (MTT) is > 200 µM. Also, in the data set on lung cancer cell H1299 (setting [5]), the IC50 is > 200 µM.

In general, MIC refers to the lowest concentration that inhibits growth of the organism. Low values mean greater potency, high ones weaker potency. As a reminder, the melting point is the temperature of the solid-liquid transition.
